# Assay results from PubChem BioAssay AID330 (DTP/NCI, 2004).
# “And” between values parts separate entries of the source, which are not always exact repeats. Equal entries are not always repeated. Toxic doses and inconclusive results are not listed.
# Tested on: P388 leukemia ip, CD2F1 mice, survival T/C
# Test: NCI In Vivo Anticancer Drug Screen. Data for tumor model P388 Leukemia (intraperitoneal) in CD2F1 (CDF1) mice
# Conditions: endpoint: median survival time, higher = longer survival
# In short: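 Mice carrying the transplanted tumor received test compound or vehicle. Survival was recorded in each group, and the value is the treated-group measurement divided by that of the vehicle-treated control group.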
# [1] = dose: 50.0 mg/kg/injection, schedule: Q01DX009 (ip), vehicle: saline
# [2] = dose: 100.0 mg/kg/injection, schedule: Q01DX009 (ip), vehicle: saline
# [3] = dose: 200.0 mg/kg/injection, schedule: Q01DX009 (ip), vehicle: saline
# [4] = dose: 50.0 mg/kg/injection, schedule: Q01DX009 (ip), vehicle: other
# [5] = dose: 100.0 mg/kg/injection, schedule: Q01DX009 (ip), vehicle: other
# [6] = dose: 50.0 mg/kg/injection, schedule: Q01DX005 (ip), vehicle: Klucel (hydroxypropylcellulose) (HPC)
# [7] = dose: 100.0 mg/kg/injection, schedule: Q01DX005 (ip), vehicle: Klucel (hydroxypropylcellulose) (HPC)
# [8] = dose: 200.0 mg/kg/injection, schedule: Q01DX005 (ip), vehicle: Klucel (hydroxypropylcellulose) (HPC)
# [9] = dose: 50.0 mg/kg/injection, schedule: Q01DX009 (ip), vehicle: saline with Tween-80
# [10] = dose: 100.0 mg/kg/injection, schedule: Q01DX009 (ip), vehicle: saline with Tween-80
# [11] = dose: 200.0 mg/kg/injection, schedule: Q01DX009 (ip), vehicle: saline with Tween-80
# [12] = dose: 100.0 mg/kg/injection, schedule: Q04DX003 (ip), vehicle: saline with Tween-80
# [13] = dose: 200.0 mg/kg/injection, schedule: Q04DX003 (ip), vehicle: saline with Tween-80
# [14] = dose: 400.0 mg/kg/injection, schedule: Q04DX003 (ip), vehicle: saline with Tween-80
# [15] = dose: 50.0 mg/kg/injection, schedule: Q01DX005 (ip), vehicle: saline
compound,measurement,setting,value
CS(=O)(=O)N(C=O)c1ccccc1,T/C,[1],110 % of control
same,T/C,[2],100 % of control
same,T/C,[3],96 % of control
COCCCn1c(-c2ccc(Cl)cc2)nn2c(=O)c3ccccc3nc2c1=O,T/C,[1],97 % of control
same,T/C,[2],92 % of control
same,T/C,[3],92 % of control
O=C1CCCCC2CC2C1=O (stereo not given) (tested in a mixture with another compound),T/C,[4],101 % of control
same,T/C,[5],100 % of control
same,T/C,"dose: 200.0 mg/kg/injection, schedule: Q01DX009 (ip), vehicle: other",108 % of control
Cc1cc(NCCCCCCNc2cc(C)nc3ccc(N)cc23)c2cc(N)ccc2n1,T/C,"dose: 75.0 mg/kg/injection, schedule: Q04DX003 (ip), vehicle: alcohol",177 % of control
same,T/C,"dose: 150.0 mg/kg/injection, schedule: Q04DX003 (ip), vehicle: alcohol",186 % of control
same,T/C,"dose: 300.0 mg/kg/injection, schedule: Q04DX003 (ip), vehicle: alcohol",190 % of control
C=C(C)c1nc(N)nc(N(C)C)n1,T/C,[6],100 % of control
same,T/C,[7],102 % of control
same,T/C,[8],100 % of control
CC(=O)Nc1nc2ncc(CN(C(C)=O)c3ccc(C4=NC(CCC(=O)O)C(=O)O4)cc3)nc2c(=O)[nH]1 (stereo not given),T/C,"dose: 50.0 mg/kg/injection, schedule: Q04DX003 (ip), vehicle: alkali diluted with saline",97 % of control
same,T/C,"dose: 100.0 mg/kg/injection, schedule: Q04DX003 (ip), vehicle: alkali diluted with saline",95 % of control
same,T/C,"dose: 200.0 mg/kg/injection, schedule: Q04DX003 (ip), vehicle: alkali diluted with saline",102 % of control
CCc1ccc(NCc2ccc(CNc3ccc(CC)cc3)cc2)cc1,T/C,[9],86 % of control
same,T/C,[10],96 % of control
same,T/C,[11],94 % of control
NC(=S)c1ccc(C2Nc3ccccc3N2)cc1,T/C,"dose: 25.0 mg/kg/injection, schedule: Q04DX002 (ip), vehicle: saline with Tween-80",95 % of control
same,T/C,"dose: 50.0 mg/kg/injection, schedule: Q04DX002 (ip), vehicle: saline with Tween-80",92 % of control
same,T/C,"dose: 100.0 mg/kg/injection, schedule: Q04DX002 (ip), vehicle: saline with Tween-80",87 % of control and 91 % of control
C=C(Br)C(=NC(C)(C)C)Nc1ccc(Cl)cc1,T/C,"dose: 6.25 mg/kg/injection, schedule: Q01DX005 (ip), vehicle: Klucel (hydroxypropylcellulose) (HPC)",107 % of control
same,T/C,"dose: 12.5 mg/kg/injection, schedule: Q01DX005 (ip), vehicle: Klucel (hydroxypropylcellulose) (HPC)",114 % of control
same,T/C,[6],98 % of control
same,T/C,[7],103 % of control
same,T/C,[8],102 % of control
Cc1nn(-c2nc(-c3ccc(Br)cc3)cs2)c(C)c1C,T/C,"dose: 50.0 mg/kg/injection, schedule: Q01DX009 (ip), vehicle: Klucel (hydroxypropylcellulose) (HPC)",105 % of control
same,T/C,"dose: 100.0 mg/kg/injection, schedule: Q01DX009 (ip), vehicle: Klucel (hydroxypropylcellulose) (HPC)",106 % of control
same,T/C,"dose: 200.0 mg/kg/injection, schedule: Q01DX009 (ip), vehicle: Klucel (hydroxypropylcellulose) (HPC)",105 % of control
O=C(O)c1c[nH]c2cc(OCCOc3ccc(F)cc3)ccc2c1=O,T/C,"dose: 100.0 mg/kg/injection, schedule: Q04DX003 (ip), vehicle: saline",105 % of control
same,T/C,"dose: 200.0 mg/kg/injection, schedule: Q04DX003 (ip), vehicle: saline",105 % of control
same,T/C,"dose: 400.0 mg/kg/injection, schedule: Q04DX003 (ip), vehicle: saline",104 % of control
O=C(Nc1cc(-c2ccccc2)[nH]n1)c1ccc(Cl)cc1,T/C,"dose: 60.0 mg/kg/injection, schedule: Q01DX005 (ip), vehicle: saline with Tween-80",102 % of control
same,T/C,"dose: 120.0 mg/kg/injection, schedule: Q01DX005 (ip), vehicle: saline with Tween-80",93 % of control
same,T/C,"dose: 240.0 mg/kg/injection, schedule: Q01DX005 (ip), vehicle: saline with Tween-80",93 % of control
CC1(C)CC2(CC3(C1)SCCS3)OCCO2,T/C,[12],98 % of control
same,T/C,[13],99 % of control
same,T/C,[14],97 % of control
C[Si]1(C)CCCCC1,T/C,[1],102 % of control
same,T/C,[2],95 % of control
same,T/C,[3],101 % of control
same,T/C,"dose: 400.0 mg/kg/injection, schedule: Q01DX009 (ip), vehicle: saline",102 % of control
CCC(CC)NCCNc1cc(OC)cc2cccnc12,T/C,"dose: 12.5 mg/kg/injection, schedule: Q01DX005 (ip), vehicle: saline",109 % of control
same,T/C,"dose: 25.0 mg/kg/injection, schedule: Q01DX005 (ip), vehicle: saline",108 % of control
same,T/C,[15],100 % of control and 103 % of control
C=CCC(OC(=O)c1ccc(Br)cc1)C1(C)OC1C(C)C1CC(O)(C(OC)OC)NC(=O)O1 (stereo not given),T/C,"dose: 0.25 mg/kg/injection, schedule: Q01DX009 (ip), vehicle: saline + alcohol",108 % of control
same,T/C,"dose: 0.5 mg/kg/injection, schedule: Q01DX009 (ip), vehicle: saline + alcohol",107 % of control
same,T/C,"dose: 1.0 mg/kg/injection, schedule: Q01DX009 (ip), vehicle: saline + alcohol",115 % of control
CCOC(=O)C(Cc1c[nH]c2ccccc12)NCCN (stereo not given),T/C,[1],99 % of control
same,T/C,[2],108 % of control
same,T/C,[3],86 % of control
CNc1ccccc1C(=O)C(=O)O,T/C,[10],105 % of control
same,T/C,[11],102 % of control
same,T/C,"dose: 400.0 mg/kg/injection, schedule: Q01DX009 (ip), vehicle: saline with Tween-80",100 % of control
ClC(Cl)C1OCCCO1,T/C,"dose: 60.0 mg/kg/injection, schedule: Q01DX005 (ip), vehicle: saline",100 % of control
same,T/C,"dose: 120.0 mg/kg/injection, schedule: Q01DX005 (ip), vehicle: saline",99 % of control
same,T/C,"dose: 240.0 mg/kg/injection, schedule: Q01DX005 (ip), vehicle: saline",96 % of control
C/C=C(\C)C(=O)N/N=C\c1ccc(O)cc1O,T/C,[9],104 % of control
same,T/C,[10],96 % of control
same,T/C,[11],91 % of control
CCOC(=O)c1cc([N+](=O)[O-])c(SSc2sc(C(=O)OCC)cc2[N+](=O)[O-])s1,T/C,[12],104 % of control
same,T/C,[13],96 % of control
same,T/C,[14],95 % of control
CN1CCC(O)(O)C(Cl)(Cl)C1,T/C,"dose: 50.0 mg/kg/injection, schedule: Q01DX005 (ip), vehicle: suspension in saline",104 % of control
same,T/C,"dose: 100.0 mg/kg/injection, schedule: Q01DX005 (ip), vehicle: suspension in saline",99 % of control
same,T/C,"dose: 200.0 mg/kg/injection, schedule: Q01DX005 (ip), vehicle: suspension in saline",95 % of control
C=CCNC(=S)Nc1ccccn1,T/C,"dose: 50.0 mg/kg/injection, schedule: Q01DX005 (ip), vehicle: saline with Tween-80",104 % of control
same,T/C,"dose: 100.0 mg/kg/injection, schedule: Q01DX005 (ip), vehicle: saline with Tween-80",100 % of control
same,T/C,"dose: 200.0 mg/kg/injection, schedule: Q01DX005 (ip), vehicle: saline with Tween-80",102 % of control
CCCCn1c(C)nc2c(cnn2C)c1=O,T/C,[6],114 % of control
same,T/C,[7],101 % of control
same,T/C,[8],108 % of control
CC1CN1P(=O)(OCCC#N)N1CC1C (stereo not given),T/C,"dose: 25.0 mg/kg/injection, schedule: Q01DX009 (ip), vehicle: other",104 % of control
same,T/C,"dose: 44.0 mg/kg/injection, schedule: Q04DX003 (ip), vehicle: other",118 % of control
same,T/C,[4],110 % of control
same,T/C,"dose: 66.0 mg/kg/injection, schedule: Q04DX003 (ip), vehicle: other",118 % of control
same,T/C,[5],165 % of control and 177 % of control
same,T/C,"dose: 150.0 mg/kg/injection, schedule: Q04DX003 (ip), vehicle: other",163 % of control
Nc1cccc2c1C(=O)c1nccnc1C2=O,T/C,"dose: 100.0 mg/kg/injection, schedule: Q01DX001 (ip), vehicle: Klucel + Tween-80",98 % of control
same,T/C,"dose: 200.0 mg/kg/injection, schedule: Q01DX001 (ip), vehicle: Klucel + Tween-80",98 % of control
same,T/C,"dose: 400.0 mg/kg/injection, schedule: Q01DX001 (ip), vehicle: Klucel + Tween-80",97 % of control
CC(CC(=O)O)C(N)C(=O)O (stereo not given),T/C,[15],96 % of control
same,T/C,[1],92 % of control
same,T/C,"dose: 100.0 mg/kg/injection, schedule: Q01DX005 (ip), vehicle: saline",95 % of control
same,T/C,[2],91 % of control
same,T/C,"dose: 200.0 mg/kg/injection, schedule: Q01DX005 (ip), vehicle: saline",101 % of control
same,T/C,[3],92 % of control
